# Like-named read-outs stand apart in the source and are kept apart here.
# How the values were obtained:
# [1] = test system: U251MG; test: Cytotoxic assay MTT, monolayer culture; assay type: cell-based; conditions: Homo sapiens
# Protocol: (§1) The human Glioblastoma cell line SF268 and U251MG were cultured in RPMI 1640 medium (SIGMA) supplemented with 10% Fetal Bovine Serum (FBS) at 37°C under 5% CO2 atmosphere. For DNA transfection, SF268 and U251MG were transfected with Mirus TransIT-X2 Dynamic Delivery System (Mirus MIR6000) in exponential phase with 2.5 µg of a small hairping RNA (shRNA) against NAMPT (QIAGEN SureSilencing shRNA insert sequence: 5'-[…]-3' (SEQ ID NO: 17)), 2.5 µg of DNA carrying an hygromycin empty vector (QIAGEN noncoding sequence: 5'-[…]-3' (SEQ ID NO: 18)) and 2.5 µg of DNA of pCMV-hygromycin carrying a cDNA of NAMPT gene (SinoBiological HG10990-M).
# (§2) For the assay, 5x10^3 cells were seeded and then treated with the different compound at 11 different concentrations at 1/3 dilutions after 24 hours. Then, 96 hours later, cell viability was measured via MTT assay and validated independently by crystal violet staining. IC50 was calculated as the concentration allowing 50% survival compared to day 0 controls. Combination experiments were performed testing 11 different concentrations at 1/3 dilutions of FK866 and maintaining same suboptimal concentration of TMZ (as indicated) in all tested points.
# [2] = test system: U251MG tumorspheres; test: Cytotoxic assay, tumorsphere specific assay; assay type: cell-based; conditions: Homo sapiens
# Protocol: (§3) A total of 5x10^3 cells/mL/well were seeded in Ultra-low Attachment Plates containing MammoCultTM Basal Medium (Human) (Stem Cell Tech) supplied with 0.48 mg/mL hydrocortisone, 0.2% heparin solution and 10% MammoCult™ Proliferation Supplement (Human). After 4 days, primary tumorspheres were measured, both in size and in number, using an inverted microscope (Olympus CKX41).
# as §2
# [3] = test system: SF268; test: Cytotoxic assay MTT, monolayer culture; assay type: cell-based, human; conditions: for IC50: Homo sapiens, monolayer
# Protocol: as §1
# 5x10^3 SF268 cells were seeded then treated with FK866 24 hours later. After 96 hours, cell viability was measured with MTT.
# as §2
# [4] = test system: SF268 tumorspheres; test: Cytotoxic assay, tumorsphere specific assay; assay type: cell-based, human; conditions: for IC50: Homo sapiens
# Protocol: as §3, §2
# [5] = test system: SF268 NAMPT-underexpressing cells; test: Proliferation assay (growth curve), rescue of NAMPT-underexpressing cells; assay type: cell-based, human; conditions: 1 mM NMN; compared to sh
# Protocol: A time course curve of parental (empty vector transfected cells) and NAMPT both cDNA and shRNA-expressing cells was generated by seeding […] in 2.2 cm bottom-well diameter dishes in triplicate samples. After 24 hours, medium was changed (day 0) and the indicated culture media added. Every 24 hours, cells were fixed and stained with crystal violet 1% (SIGMA C6158-50G). After extensive washing, crystal violet was solubilized in 20% acetic acid (Sigma) and quantified at 595 nm absorbance as a relative measure of cell number (BIORAD iMarkTM Microplate Reader). Values are expressed as the percentage of cell growth of cells growing in the presence of 10% FBS. Zero percent refers to the number of cells at day 0.
# (§4) NAMPT catalyzes the conversion of nicotinamide to nicotinamide mononucleotide (NMN), which is the rate-limiting step in the NAD salvage pathway. If the enzymatic activity of NAMPT is directly responsible for these phenotypes, the phenotype should be recovered by directly adding the product of the enzyme to cells. Therefore, we repeated the previous surrogate experiments and added saturating concentrations of NMN to cells expressing low levels of NAMPT (sh supplemented with NMN, sh+NMN). In these experiments, we rescued the parental phenotypes by supplying the cells with the NAMPT metabolic product NMN (Figure 6A-D left). […]
# [6] = test system: SF268 NAMPT-underexpressing cells; test: Sphere-forming assay, rescue; assay type: cell-based, human; conditions: 1 mM NMN; compared to sh
# Protocol: as §3
# (§5) NAMPT catalyzes the conversion of nicotinamide to nicotinamide mononucleotide (NMN), which is the rate-limiting step in the NAD salvage pathway. If the enzymatic activity of NAMPT is directly responsible for these phenotypes, the phenotype should be recovered by directly adding the product of the enzyme to cells. Therefore, we repeated the previous surrogate experiments and added saturating concentrations of NMN to cells expressing low levels of NAMPT (sh supplemented with NMN, sh+NMN). In these experiments, we rescued the parental phenotypes by supplying the cells with the NAMPT metabolic product NMN (Figure 6A-D left). […] Similar results were found using a second shRNA against NAMPT (Figure 4A, B).
# Similar results were found using a second shRNA against NAMPT (Figure 4A, B).
# [7] = test system: NAMPT- underexpressing cells; test: Clonal heterogeneity analysis (clone phenotypes), rescue; assay type: cell-based, human; conditions: 1 mM NMN; both cell lines
# Protocol: (§6) 10^3 cells were seeded in 10 cm plates, every condition in triplicate. The medium was replaced every 3 days and after 12 days the colonies were fixed and stained with a Crystal violet assay. After extensive-washing, colonies were counted. Values are expressed in number of observed colonies among 10^3 seeded cells. To analyze the clonal heterogeneity, 10^2 random colonies were classified in triplicate depending on its phenotype: Holoclone, Meroclone and Paraclone (Li H. et al 2008.; Garcia-Heredia JM, Lucena-Cacace A, Verdugo-Sivianes EM, Perez M, Carnero A. The cargo protein MAP17 (PDZK1IP1) regulates the cancer stem cell pool activating the Notch pathway by abducting NUMB. Clin Cancer Res. 2017 Feb 2. doi: 10.1158/1078-0432.CCR-16-2358. [
# as §4
# [8] = test system: SF268 NAMPT-underexpressing cells; test: Colony formation (clonogenicity) assay, rescue; assay type: cell-based, human; conditions: 1 mM NMN; compared to sh
# Protocol: as §6, §4
# [9] = test system: SF268 and U251MG NAMPT-underexpressing cells; test: FACS analysis of CD133 and CD44, rescue; assay type: cell-based, human; conditions: 1 mM NMN; both cell lines
# Protocol: Single cells were individually seeded through cell sorting (BD FACS Jazz) in 96 well Ultra-low attachment plates containing MammoCultTM Basal medium (Human) (Stem Cell Tech) supplied with hydrocortisone 0.48 mg/mL, Heparin solution 0.2% and 10% MammoCult™ Proliferation Supplement (Human). After 21 days, primary tumorspheres formed were measured both in size and number using inverted microscope (Olympus CKX41). Fluorescence-activated cell sorting (FAC). For FACS staining, live cells were incubated with CD133 (AC133-PE, Miltenyi) and CD44 (PE, Miltenyi) for 30 minutes at dilutions specified in the manufacturer's protocols.
# as §5, with “B). […]” for “B).”
# [10] = U-251, U251MG NAMPT (overexpressing), combined with constant 150 µM TMZ, read-out: IC50 FK866 + 150 µM TMZ (nM ± SD)
# [11] = U-251, U251MG sh (NAMPT shRNA), combined with constant 150 µM TMZ, read-out: IC50 FK866 + 150 µM TMZ (nM ± SD)
# [12] = U-251, U251MG v (vector only), combined with constant 150 µM TMZ, read-out: IC50 FK866 + 150 µM TMZ (nM ± SD)
# [13] = SF-268, SF268 NAMPT (overexpressing), combined with constant 100 µM TMZ, read-out: IC50 FK866 + 100 µM TMZ (nM ± SD)
# [14] = SF-268, SF268 sh (NAMPT shRNA), combined with constant 100 µM TMZ, read-out: IC50 FK866 + 100 µM TMZ (nM ± SD)
# [15] = SF-268, SF268 v (vector only), combined with constant 100 µM TMZ, read-out: IC50 FK866 + 100 µM TMZ (nM ± SD)
structure (smiles),measurement,setting,value
O=C(/C=C/c1cccnc1)NCCCCC1CCN(C(=O)c2ccccc2)CC1 [FK866],IC50,"[1]; U-251, 96 h, U251MG NAMPT (overexpressing), monotherapy, 96 hours, read-out: IC50 FK866 (nM ± SD)",15.3 ± 1.2 nM
same,IC50,"[1]; U-251, 96 h, U251MG sh (NAMPT shRNA), monotherapy, 96 hours, read-out: IC50 FK866 (nM ± SD)",22.3 ± 0.6 nM
same,IC50,"[1]; U-251, 96 h, U251MG v (vector only), monotherapy, 96 hours, read-out: IC50 FK866 (nM ± SD)",20.7 ± 0.7 nM
same,IC50,[1]; [10],5.1 ± 1.4 nM
same,IC50,[1]; [11],19.4 ± 0.7 nM
same,IC50,[1]; [12],14.3 ± 1.3 nM
same,IC50,[2]; [10],7.2 ± 0.7 nM
same,IC50,"[2]; U-251, U251MG NAMPT (overexpressing), monotherapy, read-out: IC50 FK866 (nM ± SD)",11.3 ± 1.3 nM
same,IC50,[2]; [11],25.4 ± 1.8 nM
same,IC50,"[2]; U-251, U251MG sh (NAMPT shRNA), monotherapy, read-out: IC50 FK866 (nM ± SD)",27.3 ± 1.4 nM
same,IC50,[2]; [12],17.1 ± 0.9 nM
same,IC50,"[2]; U-251, U251MG v (vector only), monotherapy, read-out: IC50 FK866 (nM ± SD)",18.6 ± 1.9 nM
same,IC50,"[3]; SF-268, 96 h, SF268 NAMPT (overexpressing), monotherapy, 96 hours, read-out: IC50 FK866 (nM ± SD)",2.8 ± 0.3 nM
same,IC50,"[3]; SF-268, 96 h, SF268 sh (NAMPT shRNA), monotherapy, 96 hours, read-out: IC50 FK866 (nM ± SD)",8.3 ± 0.8 nM
same,IC50,"[3]; SF-268, 96 h, SF268 v (vector only), monotherapy, 96 hours, read-out: IC50 FK866 (nM ± SD)",5.2 ± 0.9 nM
same,IC50,[3]; [13],0.2 ± 0.4 nM
same,IC50,[3]; [14],6.1 ± 0.2 nM
same,IC50,[3]; [15],2.4 ± 0.4 nM
same,effect of combined treatment with TMZ on the values,[3]; both in mass cultures and tumorspheres,slightly sensitized
same,sensitivity of NAMPT-overexpressing cells in mass cultures,[3]; compared with parental cells and NAMPT underexpressing cells,more sensitive
same,induced toxicity in tumorspheres (CIC population),[4],effective
same,IC50,[4]; [13],0.5 ± 1.1 nM
same,IC50,"[4]; SF-268, SF268 NAMPT (overexpressing), monotherapy, read-out: IC50 FK866 (nM ± SD)",2.5 ± 0.4 nM
same,IC50,[4]; [14],7.3 ± 0.7 nM
same,IC50,"[4]; SF-268, SF268 sh (NAMPT shRNA), monotherapy, read-out: IC50 FK866 (nM ± SD)",9.5 ± 0.9 nM
same,IC50,[4]; [15],4.2 ± 0.3 nM
same,IC50,"[4]; SF-268, SF268 v (vector only), monotherapy, read-out: IC50 FK866 (nM ± SD)",6.1 ± 1.2 nM
"NC(=O)c1ccc[n+](C2OC(COP(=O)([O-])O)C(O)C2O)c1 (stereo not drawn) [NMN, nicotinamide mononucleotide]","growth curve, vector-proliferation ratio",[5],can rescue the vector-proliferation ratio
same,tumorsphere area / number of tumorspheres,[6],can rescue the number of tumorspheres generated in the vector
same,number of holoclones,[7],can rescue the number of holoclones in the vector
same,clonogenicity,[8],can rescue the clonogenetic ability of the vector
same,levels of CD44 expression,[9],can rescue the levels of CD44 expression in the vector
same,levels of CD133 expression,[9],can rescue and surpass the levels of CD133 expression in the vector
"Cn1nnc2c(C(N)=O)ncn2c1=O [TMZ, Temozolomide]",IC50,"[1]; U-251, 96 h, U251MG NAMPT (overexpressing), monotherapy, 96 hours, read-out: IC50 TMZ (µM ± SD)",201000 ± 5300 nM
same,IC50,"[1]; U-251, 96 h, U251MG sh (NAMPT shRNA), monotherapy, 96 hours, read-out: IC50 TMZ (µM ± SD)",204000 ± 4800 nM
same,IC50,"[1]; U-251, 96 h, U251MG v (vector only), monotherapy, 96 hours, read-out: IC50 TMZ (µM ± SD)",194000 ± 3400 nM
same,IC50,"[2]; U-251, U251MG NAMPT (overexpressing), monotherapy, read-out: IC50 TMZ (µM ± SD)",222000 ± 4700 nM
same,IC50,"[2]; U-251, U251MG sh (NAMPT shRNA), monotherapy, read-out: IC50 TMZ (µM ± SD)",221000 ± 3200 nM
same,IC50,"[2]; U-251, U251MG v (vector only), monotherapy, read-out: IC50 TMZ (µM ± SD)",224500 ± 1700 nM
same,IC50,"[3]; SF-268, 96 h, SF268 NAMPT (overexpressing), monotherapy, 96 hours, read-out: IC50 TMZ (µM ± SD)",174000 ± 2100 nM
same,IC50,"[3]; SF-268, 96 h, SF268 sh (NAMPT shRNA), monotherapy, 96 hours, read-out: IC50 TMZ (µM ± SD)",163000 ± 2200 nM
same,IC50,"[3]; SF-268, 96 h, SF268 v (vector only), monotherapy, 96 hours, read-out: IC50 TMZ (µM ± SD)",165000 ± 1900 nM
same,IC50,"[4]; SF-268, SF268 NAMPT (overexpressing), monotherapy, read-out: IC50 TMZ (µM ± SD)",173000 ± 3200 nM
same,IC50,"[4]; SF-268, SF268 sh (NAMPT shRNA), monotherapy, read-out: IC50 TMZ (µM ± SD)",174000 ± 3600 nM
same,IC50,"[4]; SF-268, SF268 v (vector only), monotherapy, read-out: IC50 TMZ (µM ± SD)",170000 ± 2100 nM
